For orientation: IC50 means the concentration that inhibits the measured activity by half.

From patent publication US10640495B2, “Heterocycle derivatives having TrkA inhibitory activity” (Shionogi & Co., Ltd., priority 2015, dated 2020) come the findings set out here.

Chain of human TrkA (P04629 440-796): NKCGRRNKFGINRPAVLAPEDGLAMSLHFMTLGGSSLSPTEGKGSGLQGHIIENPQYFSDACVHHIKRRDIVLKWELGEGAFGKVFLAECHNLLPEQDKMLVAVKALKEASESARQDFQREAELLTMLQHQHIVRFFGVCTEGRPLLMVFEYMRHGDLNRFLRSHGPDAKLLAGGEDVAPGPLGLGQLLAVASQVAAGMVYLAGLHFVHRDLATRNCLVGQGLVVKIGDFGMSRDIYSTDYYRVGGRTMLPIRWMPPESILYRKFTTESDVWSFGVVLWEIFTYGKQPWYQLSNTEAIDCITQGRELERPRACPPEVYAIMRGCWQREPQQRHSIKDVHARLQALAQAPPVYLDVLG

The first test has as its target human TrkA (Homo sapiens (Human), UniProt P04629). The test is described as follows: Human TrkA inhibition assay (Test Example 2). As to conditions: Table 153, human TrkA inhibition; read-out: IC50. The format is biochemical. Put shortly:
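Recombinant TrkA (1 nmol/L) was preincubated 15 min at room temperature with compound in HEPES/MgCl2/DTT buffer, then reacted with FL-peptide 27 (1.5 μmol/L) and ATP (500 μmol/L) for 120 min at 37 °C. After EDTA stop, substrate phosphorylation was read by microfluidic mobility shift. IC50 came from logistic regression over 3-fold dilution series.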
For `COCCN1C[C@@H](NC(=O)Nc2c(C)c(-c3cnc(OC)nc3)nn2-c2ccccc2)[C@H](c2cnc(Cl)s2)O1` (racemic) [Compound I-157], the IC50 is < 100 nM.
Still for that read-out and setting: with `COCCN1C[C@@H](NC(=O)Nc2c(C)c(-c3ccc4nnc(C)n4c3)nn2-c2ccccc2)[C@H](c2ccnc(F)c2)O1` (racemic) [Compound I-158] the figure was < 100 nM.
Take `COCCN1C[C@@H](NC(=O)Nc2c(C)c(-c3cnc(C)nc3)nn2-c2ccccc2)[C@H](c2ccccc2)O1` (racemic) [Compound I-160]: the IC50 was < 100 nM.
Consider `COCCN1C[C@@H](NC(=O)Nc2c(C)c(-c3cnc4c(c3)ncn4C)nn2-c2ccccc2)[C@H](c2ccccc2)O1` (racemic) [Compound I-161], for which the IC50 was < 100 nM.
Same read-out and setting: with `COCCN1C[C@@H](NC(=O)Nc2c(C)c(-c3cnc4c(c3)nnn4C)nn2-c2ccccc2)[C@H](c2ccccc2)O1` (racemic) [Compound I-162] the figure was < 100 nM; with `CNC(=O)c1cc(-c2nn(-c3ccccc3)c(NC(=O)N[C@@H]3CN(CCOC)O[C@H]3c3ccccc3)c2C)cn(C)c1=O` (racemic) [Compound I-163], < 100 nM; with `COCCN1C[C@@H](NC(=O)Nc2c(C)c(-c3cnc4c(c3)ncn4C)nn2-c2ccccc2)[C@H](c2ccnc(F)c2)O1` (racemic) [Compound I-164], < 100 nM.
The same measure, in the same setting: for `CCNC(=O)c1ncc(-c2nn(-c3ccccc3)c(NC(=O)N[C@@H]3CN(CCOC)O[C@H]3c3ccnc(F)c3)c2C)cc1C` (racemic) [Compound I-167] the value was < 100 nM; for `COCCN1C[C@@H](NC(=O)Nc2c(C)c(-c3cnc(C(=O)NCC(F)(F)F)c(C)c3)nn2-c2ccccc2)[C@H](c2ccnc(F)c2)O1` (racemic) [Compound I-168], < 100 nM; for `COCCN1C[C@@H](NC(=O)Nc2c(C)c(-c3cnc(C(=O)NC4CC4)c(C)c3)nn2-c2ccccc2)[C@H](c2ccnc(F)c2)O1` (racemic) [Compound I-169], < 100 nM.
As for `COCCN1C[C@@H](NC(=O)Nc2c(C)c(-c3cnc(C(=O)NCC4CC4)c(C)c3)nn2-c2ccccc2)[C@H](c2ccnc(F)c2)O1` (racemic) [Compound I-170], the half-maximal inhibitory concentration (IC50) is < 100 nM.
The same measure, in the same setting: for `COCCN1C[C@@H](NC(=O)Nc2c(C)c(-c3cnc(C(=O)NC4CCOCC4)c(C)c3)nn2-c2ccccc2)[C@H](c2ccnc(F)c2)O1` (racemic) [Compound I-171] the value was < 100 nM.
Same read-out and setting: with `COCCNC(=O)c1ncc(-c2nn(-c3ccccc3)c(NC(=O)N[C@@H]3CN(CCOC)O[C@H]3c3ccnc(F)c3)c2C)cc1C` (racemic) [Compound I-173] the figure was < 100 nM; with `COCCN1C[C@@H](NC(=O)Nc2c(C)c(-c3cnc4c(cnn4C)c3)nn2-c2ccc(F)cc2)[C@H](c2ccc(F)c(F)c2)O1` (racemic) [Compound I-174], < 100 nM.
As for `COCCN1C[C@@H](NC(=O)Nc2c(C)c(-c3cnc4c(cnn4C)c3)nn2-c2ccc(F)c(F)c2)[C@H](c2ccc(F)c(F)c2)O1` (racemic) [Compound I-175], the IC50 is < 100 nM.
The same measure, in the same setting: with `COCCN1C[C@@H](NC(=O)Nc2c(C)c(-c3cnc(C)c(N=S(C)(C)=O)c3)nn2-c2ccccc2)[C@H](c2ccc(F)c(F)c2)O1` (racemic) [Compound I-176] the figure was < 100 nM.

Staying with this test, now noted: Table 154, human TrkA inhibition; read-out: IC50.
Consider `CNS(=O)(=O)c1cc(-c2nn(-c3ccccc3)c(NC(=O)N[C@@H]3CN(CCOC)O[C@H]3c3ccc(F)c(F)c3)c2C)cn(C)c1=O` (racemic) [Compound I-177], for which the IC50 is < 100 nM.
Same read-out and setting: for `CNS(=O)(=O)c1cc(-c2nn(-c3ccccc3)c(NC(=O)N[C@@H]3CN(CCOC)O[C@H]3c3ccnc(F)c3)c2C)cn(C)c1=O` (racemic) [Compound I-178] the value was < 100 nM; for `COCCN1C[C@@H](NC(=O)Nc2c(C)c(-c3cnc(OC)c(C(=O)O)c3)nn2-c2ccccc2)[C@H](c2cnc(F)c(F)c2)O1` (racemic) [Compound I-179], < 100 nM.
The same measure, in the same setting: with `CNC(=O)c1cc(-c2nn(-c3ccc(F)c(F)c3)c(NC(=O)N[C@@H]3CN(CCOC)O[C@H]3c3ccc(F)c(F)c3)c2C)cnc1OC` (racemic) [Compound I-181] the figure was < 100 nM.
As to `COCCN1C[C@@H](NC(=O)Nc2c(C)c(-c3cnc(OC)c(C(=O)NC4CCOCC4)c3)nn2-c2ccc(F)c(F)c2)[C@H](c2ccc(F)c(F)c2)O1` (racemic) [Compound I-182], the IC50 was < 100 nM.
The same measure, in the same setting: with `CNC(=O)c1cc(-c2nn(-c3ccc(F)cc3)c(NC(=O)N[C@@H]3CN(CCOC)O[C@H]3c3ccc(F)c(F)c3)c2C)cnc1OC` (racemic) [Compound I-183] the figure was < 100 nM; with `COCCN1C[C@@H](NC(=O)Nc2c(C)c(-c3cnc(OC)c(C(=O)NC4CCOCC4)c3)nn2-c2ccc(F)cc2)[C@H](c2ccc(F)c(F)c2)O1` (racemic) [Compound I-184], < 100 nM.
The same measure, in the same setting: with `COCC[C@@H]1C[C@@H](NC(=O)Nc2c(C)c(-c3ccc(N=S(C)(C)=O)nc3)nn2-c2ccccc2)[C@H](c2ccc(F)c(F)c2)O1` (racemic) [Compound I-185] the figure was < 100 nM; with `COCCN1C[C@@H](NC(=O)Nc2c(C)c(-c3cnc(OC)nc3)nn2-c2ccccc2)[C@H](c2cc(F)nc(F)c2)O1` (racemic) [Compound I-187], < 100 nM.
The same measure, in the same setting: with `COCCN1C[C@@H](NC(=O)Nc2c(C)c(-c3cnc4cccnc4c3)nn2-c2ccccc2)[C@H](c2ccnc(F)c2)O1` (racemic) [Compound I-188] the figure was < 100 nM; with `COCCN1C[C@@H](NC(=O)Nc2c(C)c(-c3ccnc(C(=O)OC)c3)nn2-c2ccccc2)[C@H](c2ccc(F)c(F)c2)O1` (racemic) [Compound I-189], < 100 nM; with `COCCN1C[C@@H](NC(=O)Nc2c(C)c(-c3ccnc(C(=O)OC)c3)nn2-c2ccccc2)[C@H](c2ccnc(F)c2)O1` (racemic) [Compound I-194], < 100 nM.
For `COCCN1C[C@@H](NC(=O)Nc2c(C)c(-c3ccnc(C(=O)NO)c3)nn2-c2ccccc2)[C@H](c2ccc(F)c(F)c2)O1` (racemic) [Compound I-195], the IC50 is < 100 nM.
Same read-out and setting: for `CCOc1ncc(-c2nn(-c3ccccc3)c(NC(=O)N[C@@H]3CN(CCOC)O[C@H]3c3ccnc(F)c3)c2C)cn1` (racemic) [Compound I-196] the value was < 100 nM; for `COCCN1C[C@@H](NC(=O)Nc2c(C)c(-c3ccnc(C(=O)NOC)c3)nn2-c2ccccc2)[C@H](c2ccc(F)c(F)c2)O1` (racemic) [Compound I-198], < 100 nM.
Turning to `COCCN1C[C@@H](NC(=O)Nc2c(C)c(-c3ccc(C(=O)OC)nc3)nn2-c2ccccc2)[C@H](c2ccc(F)c(F)c2)O1` (racemic) [Compound I-199], the IC50 is < 100 nM.
On to `CCN1C[C@@H](NC(=O)Nc2c(C)c(-c3cnc4c(cnn4C)c3)nn2-c2ccccc2)[C@H](c2ccc(F)c(F)c2)O1` (racemic) [Compound I-200], for which the IC50 was < 100 nM.
On the same count and under the same terms, with `Cc1c(-c2cnc3c(cnn3C)c2)nn(-c2ccccc2)c1NC(=O)N[C@@H]1CN(CC2CC2)O[C@H]1c1ccc(F)c(F)c1` (racemic) [Compound I-201] the figure was < 100 nM; with `Cc1c(-c2cnc3c(cnn3C)c2)nn(-c2ccccc2)c1NC(=O)N[C@@H]1CN(CC2COC2)O[C@H]1c1ccc(F)c(F)c1` (racemic) [Compound I-202], 100 to 1000 nM; with `Cc1c(-c2cnc3c(cnn3C)c2)nn(-c2ccccc2)c1NC(=O)N[C@@H]1CN(Cc2ccn[nH]2)O[C@H]1c1ccc(F)c(F)c1` (racemic) [Compound I-203], 100 to 1000 nM.
Regarding `Cc1c(-c2cnc3c(cnn3C)c2)nn(-c2ccccc2)c1NC(=O)N[C@@H]1CN(Cc2cn[nH]c2)O[C@H]1c1ccc(F)c(F)c1` (racemic) [Compound I-204], the IC50 fell in the range of 100 to 1000 nM.
As to `Cc1c(-c2cnc3c(cnn3C)c2)nn(-c2ccccc2)c1NC(=O)N[C@@H]1CN(Cc2cnn(C)c2)O[C@H]1c1ccc(F)c(F)c1` (racemic) [Compound I-205], the IC50 was in the range of 100 to 1000 nM.
Consider `Cc1c(-c2cnc3c(cnn3C)c2)nn(-c2ccccc2)c1NC(=O)N[C@@H]1CN(CC(C)(C)CN(C)C)O[C@H]1c1ccc(F)c(F)c1` (racemic) [Compound I-206], for which the IC50 lay in the range of 100 to 1000 nM.
The same measure, in the same setting: for `Cc1c(-c2cnc3c(cnn3C)c2)nn(-c2ccccc2)c1NC(=O)N[C@@H]1CN(C)O[C@H]1c1ccc(F)c(F)c1` (racemic) [Compound I-207] the value was < 100 nM.
For `COCCN1C[C@@H](NC(=O)Nc2c(C)c(-c3cnc4c(c3)[nH]c(=O)n4C)nn2-c2ccccc2)[C@H](c2ccnc(F)c2)O1` (racemic) [Compound I-208], the IC50 is < 100 nM.
Same read-out and setting: for `COCCN1C[C@@H](NC(=O)Nc2c(C)c(-c3ccnc(C(=O)O)c3)nn2-c2ccccc2)[C@H](c2ccnc(F)c2)O1` (racemic) [Compound I-212] the value was < 100 nM; for `COCCN1C[C@@H](NC(=O)Nc2c(C)c(-c3ccc(C(=O)O)nc3)nn2-c2ccccc2)[C@H](c2ccc(F)c(F)c2)O1` (racemic) [Compound I-214], < 100 nM.

The same test, now with this note: human TrkA 1 nmol/L, ATP 500 μmol/L, 120 min at 37° C.; read-out: IC50 values (TrkA phosphorylation inhibition).
Turning to `COCCN1C[C@@H](NC(=O)Nc2c(C)c(-c3ccc4nc(C)nn4c3)nn2-c2ccccc2)[C@H](c2ccnc(F)c2)O1` (racemic) [Compound I-159], the IC50 stood at 2.1 nM.
Consider `COCCN1C[C@@H](NC(=O)Nc2c(C)c(-c3cnc(C(N)=O)c(C)c3)nn2-c2ccccc2)[C@H](c2ccnc(F)c2)O1` (racemic) [Compound I-165], for which the IC50 was found to be 5.3 nM.
With `CNC(=O)c1ncc(-c2nn(-c3ccccc3)c(NC(=O)N[C@@H]3CN(CCOC)O[C@H]3c3ccnc(F)c3)c2C)cc1C` (racemic) [Compound I-166], the IC50 is 4.8 nM.
The same measure, in the same setting: for `COCCN1C[C@@H](NC(=O)Nc2c(C)c(-c3ccnc(C(=O)O)c3)nn2-c2ccccc2)[C@H](c2ccc(F)c(F)c2)O1` (racemic) [Compound I-190] the value was 2.1 nM.
The same measure, in the same setting: with `CNC(=O)c1cc(-c2nn(-c3ccccc3)c(NC(=O)N[C@@H]3CN(C)O[C@H]3c3ccc(F)c(F)c3)c2C)cn(C)c1=O` (racemic) [Compound I-193] the figure was 4 nM.
